The subject of test [1] is lysosomal sialic acid transporter mutant human fibroblasts (GM05520). The experiment in a line: Neu5Gc/ManNGc feeding, lysosomal sialic acid transporter mutant fibroblasts GM05520. The test is classed as cell-based. The settings on record: GM05520 (ISSD) fibroblasts fed 3 mM for 3 days. The text has this: (§1) Cell Lines—Caco-2 cells (human epithelial cells isolated from a primary colon carcinoma), normal human skin fibroblasts (CCD-919-SK) and chinese hamster ovary (CHO-K1) cells were purchased from ATCC (Manassas, Va.) Mutant human skin fibroblasts (GM05520, GM08496 and GM01718) were obtained from the Coriell Institute for Medical Research (Camden, N.J.) Chimpanzee Fred and human […] EBV-transformed lymphoblasts were a gift from Dr. Peter Parham, Stanford University, CA. […]
(§2) Fractionation of the Labeled Cells—Washed cell pellets were sonicated into 500 μL of 20 mM sodium phosphate buffer or 20 mM Tris-HCl, pH 7.5, using 4×15 second pulses of a sonicator cell disrupter, model Some Dismembrator (Fisher Scientific, Hampton, N.J.) at a probe setting of 3. […] The pellet contained <5% of the incorporated sialic acid as determined using a radioactive tracer (data not shown.) The supernatant was therefore considered as the “total homogenate” fraction. A portion (20%) of the “total homogenate” fraction was taken for protein quantification and Sia analysis by DMB derivatization and HPLC analysis (as discussed below.) The remainder was centrifuged at 100,000×g for 1 h. […] All the Sias in these fractions were released with mild acid hydrolysis if necessary and then analyzed by HPLC after DMB derivatization. […]

The subject of test [2] is human LB EBV-transformed lymphoblasts. The experiment in a line: Neu5Gc/Neu5Ac feeding experiment, human EBV-transformed lymphoblasts. The test is classed as cell-based. The settings on record: human lymphoblasts fed 3 mM for 3 days. Here is the method: (§3) Cell Culture—Caco-2 cells were propagated in alpha-MEM containing GLUTAMAX™ (Invitrogen, San Diego, Calif.) and a mixture of ribonucleosides and deoxyribonucleosides (Gibco/Invitrogen, San Diego, Calif.) supplemented with 20% FCS. All the fibroblast cell lines and CHO-K1 cells were cultured in the same media supplemented respectively with 15% non-heat inactivated FCS or 10% heat inactivated FCS. Chimpanzee Fred and human […] EBV-transformed lymphoblasts were cultured in RPMI-1640 (Gibco/Invitrogen, San Diego, Calif.) supplemented with 10% heat inactivated FCS or 15% human serum. All of the cultures were maintained at 37° C., 5% CO2 atmosphere. In order to deplete any remaining Neu5Gc from FCS, the cells were split and cultured prior to Neu5Gc feeding experiments for at least 4 days in alpha-MEM supplemented with an adequate percentage of heat-inactivated premium human serum instead of FCS. The cells were then maintained under the same conditions during the whole feeding experiment. The human serum was heat inactivated at 56° C. for 30 min. before use.
Neu5Gc and ManNGc Feeding Experiment—Neu5Ac, Neu5Gc or ManNGc were dried, dissolved in the appropriate media supplemented with heat-inactivated human serum, sterilized using a Spin-X® (Corning Inc., Corning, N.Y.) and then added to the cells. The pH of the media containing Sia was adjusted to neutrality using sterilized 1M NaOH before starting the feeding experiment. Cells were cultured in the presence of up to 3 mM free Sia or ManNGc for 1 or 3 days at 37° C. […]
Fractionation of the Labeled Cells—Washed cell pellets were sonicated into 500 μL of 20 mM sodium phosphate buffer or 20 mM Tris-HCl, pH 7.5, using 4×15 second pulses of a sonicator cell disrupter, model Some Dismembrator (Fisher Scientific, Hampton, N.J.) at a probe setting of 3. […] The pellet contained <5% of the incorporated sialic acid as determined using a radioactive tracer (data not shown.) The supernatant was therefore considered as the “total homogenate” fraction. A portion (20%) of the “total homogenate” fraction was taken for protein quantification and Sia analysis by DMB derivatization and HPLC analysis (as discussed below.) The remainder was centrifuged at 100,000×g for 1 h. […] All the Sias in these fractions were released with mild acid hydrolysis if necessary and then analyzed by HPLC after DMB derivatization. Protein quantification was performed on the total homogenate, membrane and soluble protein fractions by using the BCA protein assay kit from Pierce (Rockford, Ill.) In some experiments, the resulting data obtained for the Sia bound to the membrane fraction and to the soluble proteins were pooled and presented here as a High Molecular Weight (HMW) fraction. […]

Test [3] deals with lysosomal sialic acid transporter mutant human fibroblasts (GM08496). The experiment in a line: Neu5Gc/ManNGc feeding, lysosomal sialic acid transporter mutant fibroblasts GM08496. The test is classed as cell-based. The settings on record: GM08496 (Salla disease) fibroblasts fed 3 mM for 3 days.
Excerpt: as §1, §2

Test [4] relates to Caco-2 cells. The test can be described thus: Competition of free Neu5Ac with free Neu5Gc for incorporation into Caco-2 cells. The test is classed as cell-based, human. The settings on record: 3 mM Neu5Gc for 3 days. The method, then: Neu5Gc and ManNGc Feeding Experiment—Neu5Ac, Neu5Gc or ManNGc were dried, dissolved in the appropriate media supplemented with heat-inactivated human serum, sterilized using a Spin-X® (Corning Inc., Corning, N.Y.) and then added to the cells. The pH of the media containing Sia was adjusted to neutrality using sterilized 1M NaOH before starting the feeding experiment. Cells were cultured in the presence of up to 3 mM free Sia or ManNGc for 1 or 3 days at 37° C. At the end of the feeding, cells were washed with cold PBS, harvested either by scraping or with 2 mM EDTA for fibroblasts, and washed again with cold PBS prior to fractionation.
Fractionation of the Labeled Cells—Washed cell pellets were sonicated into 500 μL of 20 mM sodium phosphate buffer or 20 mM Tris-HCl, pH 7.5, using 4×15 second pulses of a sonicator cell disrupter, model Some Dismembrator (Fisher Scientific, Hampton, N.J.) at a probe setting of 3. The sonicate was centrifuged at 75×g for 15 min., and the pellet obtained consisted primarily of nuclei and unbroken cells. The pellet contained <5% of the incorporated sialic acid as determined using a radioactive tracer (data not shown.) The supernatant was therefore considered as the “total homogenate” fraction. A portion (20%) of the “total homogenate” fraction was taken for protein quantification and Sia analysis by DMB derivatization and HPLC analysis (as discussed below.) The remainder was centrifuged at 100,000×g for 1 h. The resulting pellet, called the “membrane” fraction, was then resuspended by sonication (15 sec.) in 200 μl of sodium acetate buffer, pH 5.5. The 100,000×g supernatant, called the “soluble” fraction was adjusted to 90% ethanol using absolute ice-cold ethanol, and placed overnight at −20° C. The flocculant precipitate, which represents the “soluble protein” fraction, was washed 3 times with 90% ice-cold ethanol and then resuspended in 200 μl of water. The supernatant fluid representing the cytosolic low molecular weight (LMW) fraction was dried and brought up in 100 μL with water prior to Sia analysis. All the Sias in these fractions were released with mild acid hydrolysis if necessary and then analyzed by HPLC after DMB derivatization. Protein quantification was performed on the total homogenate, membrane and soluble protein fractions by using the BCA protein assay kit from Pierce (Rockford, Ill.) In some experiments, the resulting data obtained for the Sia bound to the membrane fraction and to the soluble proteins were pooled and presented here as a High Molecular Weight (HMW) fraction.
Sialic Acid Release, DMB Derivatization and HPLC Analysis—The bound Sias from the total homogenate, membrane and soluble protein fractions were released using 2M acetic acid hydrolysis, 3 h. at 80° C. The released Sias, or free Sias, contained in the soluble LMW fraction were passed through a Microcon® YM-10 filter (Millipore, Bedford, Mass.) prior to DMB derivatization, which was done according to Hara et al., 1989. DMB-Sia derivatives from the different fractions were then analyzed by HPLC using a C18 column (Microsorb Mv-TM 100 A, Varian, Palo Alto, Calif.) Isocratic elution was achieved using 7% methanol, 8% acetonitrile in water during 50 min. at 0.9 ml/min flow. The eluant was monitored by fluorescence.
Quantification of Sias—For all HPLC chromatograms, the quantification of Sias was done by comparison with known quantities of DMB derivatized Neu5Gc and Neu5Ac used as standards and then reported in terms of pmoles of Sia. For total homogenate, membrane and cytosolic protein fractions, this number was expressed per mg of protein. Due to minor sample-to-sample variations in amounts and recoveries, the data in the Figures is presented as percent of Neu5Gc over total Sias, rather than as absolute amounts.

Test [5] deals with Caco-2 cells. The experiment in a line: Neu5Gc and ManNGc feeding experiment, Caco-2 cells (fractionation, DMB-HPLC). The test is classed as cell-based. The settings on record: Caco-2 cells fed 3 mM for 3 days, grown in human serum. Here is the method: as §3, with “use. […]” for “use.”
as §2

As to `O=C(CO)N[C@H]1[C@H]([C@H](O)[C@H](O)CO)OC(O)(C(=O)O)C[C@@H]1O` (stereo partly shown) [Neu5Gc, N-glycolylneuraminic acid], in test [1], the “percent of Neu5Gc in membrane-bound glycoconjugates” value stood at 5%. For the same molecule, in test [2], the “Neu5Gc as percent of total Sia, HMW fraction” value is on record as 51%; the “Neu5Gc as percent of total Sia, LMW cytosolic fraction” value worked out at 80%; the “Neu5Gc as percent of total Sia, TH fraction” value stood at 67%. For the same molecule, in test [3], the “percent of Neu5Gc in membrane-bound glycoconjugates” value is 16%. The “Neu5Gc as percent of total Sia, membrane-bound fraction” value in the test with Caco-2 cells [4] (no added Neu5Ac) came to 41%. Besides, in the test on Caco-2 cells [4] (no added Neu5Ac (baseline incorporation)), the “Neu5Gc as percent of total Sia, TH” value is 56%. Further, in the test with Caco-2 cells [5], the “Neu5Gc as percent of total Sia, cytosolic low molecular weight (LMW) fraction” value was 70%; the “Neu5Gc as percent of total Sia, high molecular weight fraction (HMW)” value stood at 46%; the “Neu5Gc as percent of total Sia, total homogenate (TH)” value is listed as 58%.
